Data reported in patent publication US20240189244A1 (priority 2021, published 2024).
Structures can show the parent of a compound that is named as a salt.

Experiments:
[1] = test system: renal proximal tubule cells (RPTCs); assay type: cell-based, New Zealand white rabbits; conditions: for effect of inhibitor pretreatment on DEDC(NP) uptake by RPTCs: then 0.1 mg/mL DEDC(NP)s 2 h
Method: To assess uptake of DEDC(NP)s, RPTCs were grown in 35-mm tissue culture dishes as described above. DEDC(NP) dispersions were prepared by diluting nanoparticles into media and vortexed immediately prior to experiments. Cells were preincubated for 30 min with varying concentrations of either media or the drugs chlorpromazine hydrochloride (Sigma-Aldrich), nocodazole (Sigma-Aldrich), or simvastatin (Sigma-Aldrich). After pre-incubation, DEDC(NP)s were added at a final concentration of 0.1 mg/mL and incubated for 2 h at 37° C. Cells were washed in triplicate with media to ensure removal of nanoparticles adhered to the outer cell membrane. Cells were then fixed in 10% neutral buffered formalin and nuclei stained with 4′,6-diamidino-2-phenylindole (DAPI). Cells were imaged using the EVOS M5000 Imaging System (ThermoFisher, Waltham, MA) and fluorescence intensity was analyzed by ImageJ (NIH) (n=5 biological replicates).

[2] = test system: PGC-1α, ND1, NDUFS1 in left ventricle; test: Immunoblot of mitochondrial biogenesis markers in left ventricle of naive mice; conditions: 24 hours; formoterol 0.3 mg/kg or nanoparticles 0.04 mg/kg formoterol i.v.; vs control
Method: (§1) Male C57BL/6 mice were obtained from Charles River (Oakwood, MI) and housed in a room at a constant temperature of 22+2° C. with 12:12 hour light-dark cycles. […] At 24 hours post exposure, mice were euthanized and kidney and heart were harvested. All experiments were approved by The University of Arizona in accordance with the guidelines set forth by the National Institutes of Health Guide for the Care and Use of Laboratory Animals.

BTBR WT and ob/ob mice = test: Diabetic mice: cardiovascular fibrosis, heart weight and survival
Method: The efficacy of nanoparticle therapy was determined using BTBR wild type and obese diabetic mice (BTBR T^+ Itpr3^tf/J (WT) and BTBR.Cg-Lep^ob/WiscJ (ob/ob)) (The Jackson Laboratory, Bar Harbor, ME). […] Mice in the vehicle saline groups, Veh(Sal), received daily intraperitoneal injections of normal saline. Immediately following study initiation, 8 mice from both WT and ob/ob Veh(Sal) were euthanized and kidneys extracted for histological analysis. Remaining mice (n=8 per group) were treated for 8 weeks. Following the final week of treatment, mice were sacrificed and kidneys were perfused with normal saline with heparin (10 U/mL). Serum, kidneys and heart were collected for protein and histological analysis.
Cardiovascular fibrosis was measured by quantification of the fraction of trichrome-positive area in both interstitial and perivascular sections of the right ventricular wall. At least 15 sections were quantified per animal. All quantification was completed by an analyst blinded to treatment group.

[3] = test system: NDUFB8, SDHB, UQCRC2, ATP5A in renal cortex; test: Nanoparticle dose selection: renal cortical ETC proteins after 1 week of dosing; conditions: BTBR WT mice
Method: The FFD(NP) dosage and frequency was determined using BTBR wild type mice (BTBR T^+ Itpr3^tf/J) (The Jackson Laboratory, Bar Harbor, ME). […] The Veh(Sal) group was given intraperitoneal injections of normal saline daily. The Veh(NP) group was given 60 mg/kg nanoparticles injected via lateral tail vein 2× per week. […] After eight days, mice were weighed, euthanized and kidneys were extracted and snap-frozen in liquid nitrogen.
Protein was extracted from renal cortical tissue using radioimmunoprecipitation assay (RIPA) buffer (50 mM Tris-HCl, 150 mM NaCl, 0.1% SDS, 0.5% sodium deoxycholate and 1% Triton X-100, pH 7.4) with protease inhibitor cocktail (1:100), 1 mM sodium fluoride, and 1 mM sodium orthovanadate (Sigma Aldrich). Equal protein quantities (10 μg) were loaded onto 4-15% SDS-PAGE gels, resolved by gel electrophoresis, and then transferred onto nitrocellulose membranes. Membranes were blocked in 5% milk in tris-buffered saline/tween 20, incubated at a temperature of 4° C. for 18-24 h with primary and secondary antibodies (Abcam). Bound antibodies were visualized using enhanced chemiluminescence (Thermo Scientific, Waltham, MA) and the GE ImageQuant LAS400 Biomolecular Imaging System (GE Healthcare, Marlborough, MA).

C57BL/6 mice = test: Tail cuff heart rate and blood pressure, naive mice; conditions: 1-2 hours after 0.3 mg/kg formoterol
Method: as §1
(§2) The blood pressure and heart rates were measured with a non-invasive tail cuff device (CODA8, Kent Scientific, CT) which uses a volume-pressure method as previously described (Wang Y, Thatcher S E, Cassis L A. Measuring Blood Pressure Using a Noninvasive Tail Cuff Method in Mice. Methods Mol Biol. 2017; 1614:69-73). All measurements were performed on restrained, conscious animals located on a heating pad following the manufacturers protocol. […] At least 10 valid measurements were taken per animal.

Wistar rats = conditions: cited from earlier work
[4] = test system: renal proximal tubule cells (RPTCs); conditions: up to a concentration of 1000 nM, previous studies; cited from earlier work
I/R injured mice = test: I/R AKI: cardiovascular function by tail cuff; conditions: 1-2 hours following administration
Method: (§3) Mice were subjected to bilateral renal ischemia for 18-20 minutes or sham surgery as previously described (Funk J A, Schnellmann R G. Persistent disruption of mitochondrial homeostasis after acute kidney injury. Am J Physiol Renal Physiol 2012; 302: F853-864). Mice were allowed to recover without intervention for 24 hours and sorted into groups based on 24-hour serum creatinine levels prior to initiation of dosing. Mice were dosed either daily or at a reduced frequency at 24 hours and 96 hours post-injury (2-day dosing). […] Mice were given VS and FFD via intraperitoneal injection.
as §2, with “Mouse” for “The”, “CT)” for “CT) which uses a volume-pressure method”, “Biol” for “Biol.”, “1614: 69-73).” for “1614:69-73).”, “manufacturer's” for “manufacturers”

physchem = conditions: for solubility at 24 h: 25 °C, thermodynamic from solid
Method: For variable pH samples, solution pH was adjusted with either hydrochloric acid or sodium hydroxide solutions (1 M Sigma-Aldrich, St. Louis, MO). Vials were rotated gently for 24 hours at 25° C. as previously described (Aodah A, Pavlik A, Karlage K, Myrdal P B. Preformulation Studies on Piperlongumine. PLOS One. 2016; 11(3):e0151707). Test solutions were filtered using 0.45 μm PVDF or PTFE membrane filters (MilliporeSigma, Burlington, MA) for aqueous and organic solvents respectively.

[5] = test system: KIM-1, PGC-1α, ETC proteins, tight junction proteins in renal cortex; test: I/R AKI: renal cortex proteins by immunoblot and KIM-1 immunohistochemistry; assay type: in vivo, C57Bl/6 mice; conditions: 144 hours, daily treatment
Method: as §3

[6] = test system: renal proximal tubule cells (RPTCs); test: Cell viability by resazurin reduction assay; conditions: formoterol 1-1000 nM, 24 hours
Method: The RPTCs were cultured on 35-mm tissue culture dishes with 1:1 DMEM:F-12 (without glucose, phenol red, or sodium pyruvate) as media supplemented with 15 mM HEPES buffer, 2.5 mM L-glutamine, 1 μM pyridoxine HCL, 15 mM sodium bicarbonate, and 6 mM lactate. Daily, hydrocortisone (50 nM), selenium (5 ng/mL), human transferrin (5 μg/mL), bovine insulin (10 nM), and L-ascorbic acid-2-phosphate (50 μM) were added to fresh culture medium. Confluent cells were used for all experiments.
Cultured RPTCs were grown on 96-well plates at a cell density of 5×10^3 cells/well for 96 h. […] The treatments were each prepared by dissolving or suspending the powders in culture media. […] Viability was assessed (n=6 technical replicates per biological replicate) by resazurin reduction assay as described previously (41). Detection was assessed using Synergy H1 Multi-Mode Reader (BioTek Instruments, Inc., Winooski, VT) with 544 nm excitation and 590 nm emission wavelengths. The relative viability of the cells was calculated as follows: […]
Detection was measured using Synergy H1 Multi-Mode Reader (BioTek Instruments, Inc., Winooski, VT) with 544 nm excitation and 590 nm emission wavelengths. Five biological replicates were used and viability of the cells was calculated as follows:

[7] = ventricular wall, 8 weeks of treatment

CCN1C(=CC=CC=Cc2sc3ccccc3[n+]2CC)Sc2ccccc21.[I-] [DEDC, 3,3′-diethylthiadicarbocyanine iodide]
intracellular fluorescence in RPTCs (uptake) ([1]; 0.1 mg/mL DEDC(NP)s or equivalent free dye, 2 h): minimal

CN(C)CCCN1c2ccccc2Sc2ccc(Cl)cc21 [chlorpromazine, chlorpromazine hydrochloride]
effect of inhibitor pretreatment on DEDC(NP) uptake by RPTCs ([1]; 30 min preincubation): no observable decline in uptake

COc1ccc(CC(C)NCC(O)c2ccc(O)c(NC=O)c2)cc1 (centres unmarked) [formoterol, Formoterol fumarate dihydrate]
protein expression of mitochondrial biogenesis markers in left ventricle [2]: Elevated protein expression was significant | focal myocardial fibrosis / collagen accumulation (BTBR WT and ob/ob mice; 8 weeks of treatment): significant focal | probability of survival to 12 weeks of age (BTBR WT and ob/ob mice; BTBR WT mice): 38% | heart weight normalized to respective Veh(Sal) controls (BTBR WT and ob/ob mice; BTBR WT or BTBR ob/ob): 1.3 fold | probability of surviving to 12 weeks of age (BTBR WT and ob/ob mice; BTBR ob/ob mice): 13% | diffuse interstitial trichrome positive area elevation (BTBR WT and ob/ob mice; [7]): 1.6 fold | perivascular trichrome positive area elevation (BTBR WT and ob/ob mice; [7]): 3.7 fold | weight gain [3]: no differences in weight gain amongst groups | decrease in diastolic blood pressure (C57BL/6 mice): 19 mmHg | decrease in mean arterial pressure (MAP) (C57BL/6 mice): 16 mmHg | heart rate elevation above the vehicle group (C57BL/6 mice): 198 bpm | heart rate increase vs vehicle (C57BL/6 mice): 65% | increase in heart rate from baseline (Wistar rats; immediately following systemic dosing): 100-150 bpm | mean arterial pressure (MAP) (Wistar rats; intravenous administration, similar doses): significant decrease in mean arterial pressure | lowest dose at which heart rate effect was seen (Wistar rats; rat, in vivo): 3 µg/kg | persistence of heart rate increase (Wistar rats; rat, in vivo): up to 4 hours | toxicity to RPTCs [4]: non-toxic | decrease in mean arterial pressure (MAP) (I/R injured mice): 18% | heart rate increase from VS (I/R injured mice): 1.5 fold | solubility at 24 h (physchem; organic solvent or mixture, Formoterol Solubility, ACN): 5 ± 1 µg/mL | solubility at 24 h (physchem; organic solvent or mixture, Formoterol Solubility, Acetone): 63 ± 4 µg/mL | solubility at 24 h (physchem; organic solvent or mixture, Formoterol Solubility, Chloroform): 2 ± 1 µg/mL | solubility at 24 h (physchem; organic solvent or mixture, Formoterol Solubility, DCM): 1 ± 0.4 µg/mL | solubility at 24 h (physchem; water, water solubility): 1160 ± 20 µg/mL | Formoterol Solubility (physchem; Acetone, fumarate dihydrate): 51 ± 4 µg/mL | solubility in non-ionic surfactant solutions (physchem; PVA and Pluronic F127, 0.1% to 5% in aqueous solution): remains unchanged | solubility in water:alcohol mixtures (physchem; ethanol and methanol volume fraction): increased with increasing volume fraction | solubility in water at various pH (physchem; pH adjusted with HCl or NaOH): increasing solubility in highly basic or acidic conditions | claudin-5 expression [5]: 50 % of sham | viability of proximal tubule cells [6]: not significantly decreased

COC(=O)Nc1nc2ccc(C(=O)c3cccs3)cc2[nH]1 [nocodazole]
effect of inhibitor pretreatment on DEDC(NP) uptake by RPTCs ([1]; 30 min preincubation): no observable decline in uptake

CCC(C)(C)C(=O)O[C@H]1C[C@@H](C)C=C2C=C[C@H](C)[C@H](CC[C@@H]3C[C@@H](O)CC(=O)O3)[C@H]21 [simvastatin]
inhibitor concentration at which decrease in nanoparticle uptake starts ([1]; 30 min preincubation): 1 µM | inhibitor concentration giving complete reduction in intracellular fluorescence intensity ([1]; 30 min preincubation): 100 µM
